# Measurements as given in ChEMBL document CHEMBL3217438, “Diphenylbutylpiperidine-based cell autophagy inducers: Design, synthesis and SAR studies” (Medchemcomm, 2011).
# Assay: Induction of autophagy in human H4-LC3 cells assessed as number of spots of LC3-GFP after 4 hrs by DAPI staining
# Type: functional, cell-based
row,Compound,EC50 [µM]
1,O=c1oc2ccccc2n1C1CCN(CCCC(c2ccc(F)cc2)c2ccc(F)cc2)CC1,8.2
2,O=c1sc2ccccc2n1C1CCN(CCCC(c2ccc(F)cc2)c2ccc(F)cc2)CC1,> 50
3,O=C1NC2(CCN(CCCC(c3ccc(F)cc3)c3ccc(F)cc3)CC2)Nc2ccccc21,1.9
4,O=[N+]([O-])c1ccc2c(cnn2C2CCN(CCCC(c3ccc(F)cc3)c3ccc(F)cc3)CC2)c1,4.5
5,FC(F)(F)c1ccc(C(CCCN2CCC(c3c[nH]c4ccccc34)CC2)c2ccc(C(F)(F)F)cc2)cc1,0.45
6,N#CC(CCCN1CCC(N2CCc3ccccc32)CC1)(c1ccccc1)c1ccccc1,4.5
7,O=C1Oc2ccccc2CN1C1CCN(CCCC(c2ccc(F)cc2)c2ccc(F)cc2)CC1,4.1
8,Fc1ccc(C(CCCN2CCC(N3CCc4ccccc4C3)CC2)c2ccc(F)cc2)cc1,6
9,Fc1ccc(C(CCCN2CCC(c3noc4cc(F)ccc34)CC2)c2ccc(F)cc2)cc1,> 50
10,O=S1(=O)NCc2ccccc2N1C1CCN(CCCC(c2ccc(F)cc2)c2ccc(F)cc2)CC1,10.2
11,FC(F)(F)c1ccc(C(CCCN2CCC(N3CCc4ccccc43)CC2)c2ccc(C(F)(F)F)cc2)cc1,1.2
12,Fc1ccc(C(CCCN2CCC(n3nc4ccccc4n3)CC2)c2ccc(F)cc2)cc1,> 50
13,O=C1c2ccccc2C(=O)N1C1CCN(CCCC(c2ccc(F)cc2)c2ccc(F)cc2)CC1,> 50
14,N#CC(CCCN1CCC(N2Cc3ccccc3C2)CC1)(c1ccccc1)c1ccccc1,7.1
15,O=S1(=O)Nc2ccccc2CN1C1CCN(CCCC(c2ccc(F)cc2)c2ccc(F)cc2)CC1,21.7
16,Fc1ccc(C(CCCN2CCC(N3CCc4ccccc43)CC2)c2ccc(F)cc2)cc1,3.8
17,Fc1ccc(C(CCCN2CCN(c3nsc4ccccc34)CC2)c2ccc(F)cc2)cc1,10.1

row,Compound,EC50 [µM]
1,Fc1ccc(C(CCCN2CCC(n3nnc4ccccc43)CC2)c2ccc(F)cc2)cc1,> 50
2,N#CC(CCCN1CCC(c2nc3ccccc3[nH]2)CC1)(c1ccccc1)c1ccccc1,8.5
3,O=c1c2ccccc2nnn1C1CCN(CCCC(c2ccc(F)cc2)c2ccc(F)cc2)CC1,7.8
4,Fc1ccc(C(CCCN2CCC(c3nc4ccccc4o3)CC2)c2ccc(F)cc2)cc1,11.2
5,N#CC(CCCN1CCC(c2c[nH]c3ccccc23)CC1)(c1ccccc1)c1ccccc1,2.6
6,Fc1ccc(C(CCCN2CCC(n3cnc4ccccc43)CC2)c2ccc(F)cc2)cc1,4.2
7,O=c1[nH]c2ccccc2n1C1CCN(CCCC(c2ccc(F)cc2)c2ccc(F)cc2)CC1 [PIMOZIDE],5.4
8,Fc1ccc(C(CCCN2CCC(c3c[nH]c4ccccc34)CC2)c2ccc(F)cc2)cc1,6.4
9,FC(F)(F)c1ccc(C(CCCN2CCC(N3Cc4ccccc4C3)CC2)c2ccc(C(F)(F)F)cc2)cc1,1.5
10,O=c1[nH]c2ccccc2c(=O)n1C1CCN(CCCC(c2ccc(F)cc2)c2ccc(F)cc2)CC1,2.8
11,FC(F)(F)c1ccc(C(CCCN2CCC(c3nc4ccccc4[nH]3)CC2)c2ccc(C(F)(F)F)cc2)cc1,0.9
12,Fc1ccc(C(CCCN2CCC(c3nc4ccccc4[nH]3)CC2)c2ccc(F)cc2)cc1,4
13,Fc1ccc(C(CCCN2CCC(c3nc4ccccc4s3)CC2)c2ccc(F)cc2)cc1,10.6
14,O=C1Nc2ccccc2CN1C1CCN(CCCC(c2ccc(F)cc2)c2ccc(F)cc2)CC1,1.3
15,Fc1ccc(C(CCCN2CCC(N3Cc4ccccc4C3)CC2)c2ccc(F)cc2)cc1,4.1
16,O=C1NCc2ccccc2N1C1CCN(CCCC(c2ccc(F)cc2)c2ccc(F)cc2)CC1,2.9
